Results from ChEMBL document CHEMBL1140538, “Pyrazolo[1,5-a]pyrimidines as orally available inhibitors of cyclin-dependent kinase 2” (Bioorg Med Chem Lett, 2007).
Several values for one entry are separate records, joined by “and”; a condition that tells them apart may be missing. Identical values can stand only once.

Assays:
[1] = target: Glycogen synthase kinase-3 beta (Homo sapiens, UniProt P49841); experiment: Inhibition of human GSK3-beta
[2] = Inhibition of human CDK2/cyclin A
[3] = Effect on cell proliferation assessed as radiolabeled thymidine incorporation in cell-based assay; type: functional; conditions: Homo sapiens
[4] = Inhibition of human MAPK
[5] = Tmax in monkey at 10 mg/kg; type: ADME, organism-based, Macaca mulatta; set-up: dose 10 mg/kg; conditions: rhesus monkey, in vivo
[6] = organism: Homo sapiens; experiment: Protein binding in human; type: ADME, organism-based; conditions: in vivo
[7] = AUC in dog at 5 mg/kg; type: ADME, organism-based, Canis lupus familiaris; set-up: dose 5 mg/kg; conditions: plasma
[8] = AUC in monkey at 10 mg/kg; type: ADME, organism-based, Macaca mulatta; set-up: dose 10 mg/kg; conditions: rhesus monkey, plasma
[9] = organism: Rattus norvegicus; experiment: Protein binding in rat; type: ADME, organism-based; conditions: in vivo
[10] = organism: Mus musculus; experiment: Protein binding in mouse; type: ADME, organism-based; conditions: in vivo
[11] = Cmax in mouse at 40 mg/kg; type: ADME, organism-based; set-up: dose 40 mg/kg; conditions: in vivo
[12] = Tmax in mouse at 40 mg/kg; type: ADME, organism-based; set-up: dose 40 mg/kg; conditions: in vivo
[13] = AUC in rat at 10 mg/kg; type: ADME, organism-based; set-up: dose 10 mg/kg; conditions: plasma
[14] = Cmax in dog at 5 mg/kg, po; type: ADME, organism-based, Canis lupus familiaris; set-up: dose 5 mg/kg, route oral; conditions: in vivo
[15] = Tmax in rat at 10 mg/kg; type: ADME, organism-based; set-up: dose 10 mg/kg; conditions: in vivo
[16] = Cmax in monkey at 10 mg/kg; type: ADME, organism-based, Macaca mulatta; set-up: dose 10 mg/kg; conditions: rhesus monkey, in vivo
[17] = AUC in mouse at 40 mg/kg; type: ADME, organism-based; set-up: dose 40 mg/kg; conditions: plasma
[18] = test system: A2780; experiment: Antitumor activity against A2780 cells xenografted in mouse at 40 mg/kg, po QD for 10 days; type: functional; conditions: A2780, 240 h
[19] = test system: Rhesus monkey; experiment: Protein binding in monkey; type: ADME, organism-based, Macaca mulatta; conditions: in vivo
[20] = Cmax in rat at 10 mg/kg; type: ADME, organism-based; set-up: dose 10 mg/kg; conditions: in vivo
[21] = organism: Canis familiaris; experiment: Protein binding in dog; type: ADME, organism-based, Canis lupus familiaris; conditions: in vivo

Glycogen synthase kinase-3 beta, sequence (P49841 whole entry): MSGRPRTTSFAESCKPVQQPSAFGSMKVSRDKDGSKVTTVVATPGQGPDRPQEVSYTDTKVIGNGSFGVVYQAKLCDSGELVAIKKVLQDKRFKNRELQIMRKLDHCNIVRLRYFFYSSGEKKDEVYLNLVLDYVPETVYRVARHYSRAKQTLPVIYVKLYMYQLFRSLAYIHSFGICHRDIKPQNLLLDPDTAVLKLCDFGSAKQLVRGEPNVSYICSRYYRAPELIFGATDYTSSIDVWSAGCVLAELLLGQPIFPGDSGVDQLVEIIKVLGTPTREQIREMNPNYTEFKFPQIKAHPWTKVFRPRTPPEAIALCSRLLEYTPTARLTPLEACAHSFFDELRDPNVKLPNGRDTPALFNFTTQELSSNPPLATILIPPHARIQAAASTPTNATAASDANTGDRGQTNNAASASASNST

| IC50 [1] | IC50 [2] | Structure (SMILES) | IC50 [3] | also measured |
| --- | --- | --- | --- | --- |
| 13300 nM | 408 nM | Fc1ccccc1-c1cc(Nc2ccccc2)n2ncc(Br)c2n1 | – | – |
| 180 nM | 8 nM | Brc1cnn2c(NCc3cccnc3)cc(C3CCCNC3)nc12 (stereo unspecified) | 60 nM | – |
| 310 nM | 8 nM | Brc1cnn2c(NCc3cccnc3)cc(-c3ccco3)nc12 | 15200 nM | – |
| – | 825 nM | Clc1ccccc1-c1cc(NC2CC2)n2ncc(Br)c2n1 | – | – |
| 3530 nM | 60 nM | Cc1cc(NCc2cccnc2)n2ncc(Br)c2n1 | 1800 nM | – |
| 1410 nM | 35 nM | COc1cc(NCc2cccnc2)n2ncc(Br)c2n1 | 2000 nM | – |
| – | > 50000 nM | c1ccc(-c2cc(NCc3cccnc3)n3ncc(-c4ccccc4)c3n2)cc1 | – | – |
| 2800 nM | 8 nM | CCc1cnn2c(NCc3cccnc3)cc(-c3ccccc3)nc12 | – | IC50 [4]: 2000 nM |
| 500 nM | 38 nM | CC(O)c1cc(NCc2cccnc2)n2ncc(Br)c2n1 (stereo unspecified) | 1400 nM | – |
| – | 710 nM | FC(F)(F)Cc1cnn2c(NCc3cccnc3)cc(-c3ccccc3)nc12 | – | – |
| 1100 nM | 49 nM | N#CCc1cnn2c(NCc3cccnc3)cc(-c3ccccc3)nc12 | – | IC50 [4]: 1330 nM |
| 1180 nM | 38 nM | CSc1cc(NCc2cccnc2)n2ncc(Br)c2n1 | 990 nM | – |
| 420 nM | 17 nM | CC(C)c1cc(NCc2cccnc2)n2ncc(Br)c2n1 | 950 nM | – |
| 480 nM | 13 nM | Brc1cnn2c(NCc3cccnc3)cc(-c3cccs3)nc12 | 750 nM | – |
| 247 nM | 20 nM | CNc1cc(-c2ccccc2Cl)nc2c(Br)cnn12 | 1800 nM | – |
| – | 163 nM | CCCNc1cc(-c2ccccc2Cl)nc2c(Br)cnn12 | – | – |
| – | 34000 nM | CN(C)Cc1cnn2c(NCc3cccnc3)cc(-c3ccccc3)nc12 | – | – |
| 600 nM | 34 nM | Brc1cnn2c(NCOc3cccnc3)cc(-c3ccccc3)nc12 | 140 nM | – |
| – | 1200 nM | CCCCc1cnn2c(NCc3cccnc3)cc(-c3ccccc3)nc12 | – | – |
| 15200 nM | 300 nM | Fc1ccccc1-c1cc(NCc2ccccc2)n2ncc(Br)c2n1 | – | – |
| – | 2170 nM | OCc1cnn2c(NCc3cccnc3)cc(-c3ccccc3)nc12 | – | – |
| – | 3400 nM | OC(c1cnn2c(NCc3cccnc3)cc(-c3ccccc3)nc12)C(F)(F)F (stereo unspecified) | – | – |
| 27 nM | 4 nM | Brc1cnn2c(NCc3cccnc3)cc(C3CCCCC3)nc12 | 200 nM | – |
| – | 90 nM | C=Cc1cnn2c(NCc3cccnc3)cc(-c3ccccc3)nc12 | – | – |
| 35 nM | 11 nM | Clc1ccccc1-c1cc(NCOc2cccnc2)n2ncc(Br)c2n1 | 170 nM | – |
| 450 nM | 350 nM | CS(=O)(=O)c1ccc(Nc2cc(-c3ccccc3Cl)nc3c(Br)cnn23)cc1 | 900 nM | – |
| 34 nM | 2 nM | CC(=O)NCCSc1cnn2c(NCc3cccnc3)cc(-c3ccccc3)nc12 | – | IC50 [4]: 12000 nM |

| IC50 [1] | IC50 [2] | Structure (SMILES) | IC50 [3] | also measured |
| --- | --- | --- | --- | --- |
| – | 840 nM | C#CCc1cnn2c(NCc3cccnc3)cc(-c3ccccc3)nc12 | – | – |
| – | 1100 nM | COc1cnn2c(NCc3cccnc3)cc(-c3ccccc3)nc12 | – | – |
| – | 210 nM | Brc1cnn2c(NCc3cccnc3)cc(N3CCNCC3)nc12 | – | – |
| – | 250 nM | c1ccc(-c2cc(NCc3cccnc3)n3nccc3n2)cc1 | – | – |
| – | 250 nM | Nc1cc(-c2ccccc2)nc2c(Br)cnn12 | – | – |
| – | > 50000 nM | CC(=O)c1cnn2c(NCc3cccnc3)cc(-c3ccccc3)nc12 | – | – |
| 410 nM | 16 nM | Brc1cnn2c(NCc3cccnc3)cc(C3CCNCC3)nc12 | 160 nM | – |
| – | 30 nM | OCCSc1cnn2c(NCc3cccnc3)cc(-c3ccccc3)nc12 | – | – |
| 570 nM | 11 nM | Brc1cnn2c(NCc3cccnc3)cc(-c3ccccc3)nc12 | – | IC50 [4]: 370 nM |
| 4600 nM | 43 nM | CNc1cc(NCc2cccnc2)n2ncc(Br)c2n1 | 1200 nM | – |
| – | 16000 nM | c1ccc(Cc2cnn3c(NCc4cccnc4)cc(-c4ccccc4)nc23)cc1 | – | – |
| 1800 nM | 7 nM | CSc1cnn2c(NCc3cccnc3)cc(-c3ccccc3)nc12 | – | IC50 [4]: 900 nM |
| – | 71 nM | c1ccc(-c2cc(NCc3cccnc3)n3ncc(C4CC4)c3n2)cc1 | – | – |
| – | 500 nM | Clc1cccc(-c2cc(NCc3ccncc3)n3nccc3n2)c1Cl | – | – |
| – | 72 nM | Cc1cnn2c(NCc3cccnc3)cc(-c3ccccc3)nc12 | – | IC50 [4]: 1400 nM |
| – | 890 nM | CCCc1cnn2c(NCc3cccnc3)cc(-c3ccccc3)nc12 | – | – |
| – | 95 nM | FC(F)(F)c1cnn2c(NCc3cccnc3)cc(-c3ccccc3)nc12 | – | – |
| – | > 50000 nM | O=[N+]([O-])c1cnn2c(NCc3cccnc3)cc(-c3ccccc3)nc12 | – | – |
| 1130 nM | 45 nM | Brc1cnn2c(NCc3cccnc3)cc(C3CC3)nc12 | 1500 nM | – |
| 790 nM | 89 nM | CCOC(=O)c1cc(NCc2cccnc2)n2ncc(Br)c2n1 | 2900 nM | – |
| – | 370 nM | CC(C)c1cnn2c(NCc3cccnc3)cc(-c3ccccc3)nc12 | – | – |
| 54 nM | 4 nM and 3 nM | Clc1ccccc1-c1cc(NCc2cccnc2)n2ncc(Br)c2n1 | 500 nM | – |
| – | 49 nM | Cc1ccccc1-c1cc(NCc2ccc[n+]([O-])c2)n2ncc(Br)c2n1 | – | – |
| 920 nM | 18 nM | CCc1cc(NCc2cccnc2)n2ncc(Br)c2n1 | 520 nM | – |
| 130 nM | 13 nM | Fc1ccccc1-c1cc(NCOc2cccnc2)n2ncc(Br)c2n1 | 210 nM | Tmax [5]: 3.3 h; Activity [6]: 95%; AUC [7]: 2.44 µM·h; AUC [8]: 43 µM·h; Activity [9]: 85%; Activity [10]: 90%; Cmax [11]: 6810 nM; Tmax [12]: 2 h; AUC [13]: 16.4 µM·h; Cmax [14]: 2580 nM; Tmax [15]: 2 h; Cmax [16]: 3200 nM; AUC [17]: 17.9 µM·h; inhibition in vivo at 40 mg/kg [18]: 96%; Activity [19]: 89%; Cmax [20]: 2290 nM; Activity [21]: 93% |
| 9820 nM | 48 nM | C#Cc1cnn2c(NCc3cccnc3)cc(-c3ccccc3)nc12 | – | IC50 [4]: 7480 nM |
| – | 3000 nM | CC(Nc1cc(-c2ccccc2)nc2c(Br)cnn12)c1cccnc1 (stereo unspecified) | – | – |
